The structures appear in SMILES notation.

As a reminder, the IC50 is the concentration at which inhibition is half-maximal. Higher therefore signals lower potency.

This assay deals with T1, GR (Homo sapiens, UniProt P04150).
T1 construct: expressed in transfected cells; host or cells: CHO-K1
T1 sequence (P04150 1-777): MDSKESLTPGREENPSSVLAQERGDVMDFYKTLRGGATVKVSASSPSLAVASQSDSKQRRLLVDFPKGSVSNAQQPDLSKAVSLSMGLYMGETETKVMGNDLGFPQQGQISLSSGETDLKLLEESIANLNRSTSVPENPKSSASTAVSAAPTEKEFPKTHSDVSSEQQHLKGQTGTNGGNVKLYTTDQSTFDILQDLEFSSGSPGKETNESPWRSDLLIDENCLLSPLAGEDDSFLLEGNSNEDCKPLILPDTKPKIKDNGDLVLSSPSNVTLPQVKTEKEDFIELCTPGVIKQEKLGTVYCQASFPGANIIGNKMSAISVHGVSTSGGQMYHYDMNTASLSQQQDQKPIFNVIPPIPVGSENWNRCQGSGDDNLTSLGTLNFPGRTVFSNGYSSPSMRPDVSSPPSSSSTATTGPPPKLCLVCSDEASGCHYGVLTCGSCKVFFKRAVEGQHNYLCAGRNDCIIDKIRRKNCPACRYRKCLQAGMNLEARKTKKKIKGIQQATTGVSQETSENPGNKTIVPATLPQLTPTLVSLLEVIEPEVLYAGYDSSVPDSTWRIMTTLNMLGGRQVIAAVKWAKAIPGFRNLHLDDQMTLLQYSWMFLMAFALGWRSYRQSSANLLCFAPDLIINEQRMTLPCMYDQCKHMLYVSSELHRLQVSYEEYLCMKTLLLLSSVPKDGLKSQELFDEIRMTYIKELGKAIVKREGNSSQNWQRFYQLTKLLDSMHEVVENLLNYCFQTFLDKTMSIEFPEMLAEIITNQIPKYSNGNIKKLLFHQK
In words: In Vitro GR Luciferase Reporter Assay (antagonist mode, CHO-K1-GR-MMTV-Luc reporter cells). The class given is cell-based. The following applies: antagonist assay with 10 nM Dexamethasone, 18-24 hours. The text has this: Example A: In Vitro GR Luciferase Reporter Assay
Cell Line: CHO-K1-GR-MMTV-Luc reporter cells
Culture Media: DMEM (with phenol red)+10% FBS
Assay Media: DMEM (without phenol red)+10% CSS
Culture CHO-K1I-GR-MMTV-Luc reporter cells in 15 cm plates in Culture Media at conditions less than 90% confluence.
Prepare 200×DMSO 1:5 serial dilutions of control and test compounds in 96-well non-sterile V bottom plate in DMSO, 8serial dilutions for each compound.
Prepare 5× Assay Media diluted compound serial dilutions in 96-well non-sterile V bottom plate: Add 97.5 uL/well of Assay Media into 96-well then add 2.5 ul of 200× concentration of compounds and mix well.
Seed cells for Antagonist Assay: […] CHO-K1-GR-MMTV-Luc reporter cells were seeded in a Corning 3707 flat clear bottom 384-well white TC plate in 20 ul of Assay Media containing 12.5 nM Dexamethasone (final concentration=10 nM).
Add compounds: 5 ul of assay media diluted compounds were added to appropriate wells and followed a quick spin (1000 rpm, 10 sec) to bring media and cells to the bottom of plate. The plates were covered with SealMate film to avoid evaporation and placed in 37° C. incubator for approximately 18-24 hours.
Read plates: Equilibrate appropriate amount of Promega OneGlo luciferase reagent to room temperature. Remove the plates from incubator and add 25 uL of OneGlo reagent/well by multiple channel pipette and read the plates with Tecan F500 luminometer within 3 minutes.
The ability of the compounds disclosed herein to inhibit GR activity was quantified and the respective IC50 value was determined. Table 1and Table 2provide the cellular IC50 values of compounds disclosed herein.
(Reporter assays use an easily measured gene product as a stand-in for the process of interest.)
Compound `O=C(c1cc(C(F)(F)F)ccn1)[C@]12Cc3cnn(-c4ccc(F)cc4)c3C=C1CC[C@@H](S(=O)(=O)c1cnns1)C2` [Example 27, ((4aS,6R)-6-((1,2,3-thiadiazol-5-yl)sulfonyl)-1-(4-fluorophenyl)-1,4,5,6,7,8-hexahydro-4aH-benzo[f]indazol-4a-yl)(4-(trifluoromethyl)pyridin-2-yl)methanone] registered an IC50 of 0.1 to 1 µM. The compound `O=C(c1ccccn1)[C@]12Cc3cnn(-c4ccc(F)cc4)c3C=C1CC[C@H](S(=O)(=O)c1cccc(C(F)(F)F)c1)C2` [Example 28, ((4aS,6S)-1-(4-fluorophenyl)-6-((3-(trifluoromethyl)phenyl)sulfonyl)-1,4,5,6,7,8-hexahydro-4aH-benzo[f]indazol-4a-yl)(pyridin-2-yl)methanone] registered an IC50 of at most 0.1 µM. The result for `O=C(c1ccccn1)[C@]12Cc3cnn(-c4ccc(F)cc4)c3C=C1CC[C@@H](S(=O)(=O)c1ccc(F)cc1)C2` [Example 29, ((4aS,6R)-1-(4-fluorophenyl)-6-((4-fluorophenyl)sulfonyl)-1,4,5,6,7,8-hexahydro-4aH-benzo[f]indazol-4a-yl)(pyridin-2-yl)methanone] reads 0.1 to 1 µM; that for `Cc1ccnc(C(=O)[C@]23Cc4cnn(-c5ccc(F)cc5)c4C=C2CC[C@H](S(=O)(=O)c2ccc(F)c(F)c2)C3)c1` [Example 30, ((4aS,6S)-6-((3,4-difluorophenyl)sulfonyl)-1-(4-fluorophenyl)-1,4,5,6,7,8-hexahydro-4aH-benzo[f]indazol-4a-yl)(4-methylpyridin-2-yl)methanone], at most 0.1 µM. On to `Cc1ccc(C(=O)[C@]23Cc4cnn(-c5ccc(F)cc5)c4C=C2CC[C@H](S(=O)(=O)c2cccc(C(F)(F)F)c2)C3)nc1` [Example 31, ((4aS,6S)-1-(4-fluorophenyl)-6-((3-(trifluoromethyl)phenyl)sulfonyl)-1,4,5,6,7,8-hexahydro-4aH-benzo[f]indazol-4a-yl)(5-methylpyridin-2-yl)methanone], for which the IC50 was at most 0.1 µM. In the case of `O=C(c1ccccn1)[C@]12Cc3cnn(-c4ccc(F)cc4)c3C=C1CC[C@H](S(=O)(=O)c1ccc(C(F)(F)F)cn1)C2` [Example 32, ((4aS,6S)-1-(4-fluorophenyl)-6-((5-(trifluoromethyl)pyridin-2-yl)sulfonyl)-1,4,5,6,7,8-hexahydro-4aH-benzo[f]indazol-4a-yl)(pyridin-2-yl)methanone] it was at most 0.1 µM; in that of `Cn1ncc(S(=O)(=O)[C@H]2CCC3=Cc4c(cnn4-c4ccc(F)cc4)C[C@]3(C(=O)c3cc(C(F)(F)F)ccn3)C2)n1` [Example 33, ((4aS,6S)-1-(4-fluorophenyl)-6-((2-methyl-2H-1,2,3-triazol-4-yl)sulfonyl)-1,4,5,6,7,8-hexahydro-4aH-benzo[f]indazol-4a-yl)(4-(trifluoromethyl)pyridin-2-yl)methanone], at most 0.1 µM; in that of `Cc1ccnc(C(=O)[C@]23Cc4cnn(-c5ccc(F)cc5)c4C=C2CC[C@H](S(=O)(=O)c2ccccn2)C3)c1` [Example 34, ((4aS,6S)-1-(4-fluorophenyl)-6-(pyridin-2-ylsulfonyl)-1,4,5,6,7,8-hexahydro-4aH-benzo[f]indazol-4a-yl)(4-methylpyridin-2-yl)methanone], at most 0.1 µM. In turn, `O=C(c1ccccn1)[C@]12Cc3cnn(-c4ccc(F)cc4)c3C=C1CC[C@H](S(=O)(=O)C1CCCCC1)C2` [Example 35, ((4aS,6S)-6-(cyclohexylsulfonyl)-1-(4-fluorophenyl)-1,4,5,6,7,8-hexahydro-4aH-benzo[f]indazol-4a-yl)(pyridin-2-yl)methanone] gave an IC50 of at most 0.1 µM.

As for `Cc1ccnc(C(=O)[C@]23Cc4cnn(-c5ccc(F)cc5)c4C=C2CC[C@H](S(=O)(=O)c2ccccc2)C3)c1` [Example 36, ((4aS,6S)-1-(4-fluorophenyl)-6-(phenylsulfonyl)-1,4,5,6,7,8-hexahydro-4aH-benzo[f]indazol-4a-yl)(4-methylpyridin-2-yl)methanone], the IC50 is at most 0.1 µM.

In turn, `O=C(c1ccccn1)[C@]12Cc3cnn(-c4ccc(F)cc4)c3C=C1CC[C@H](S(=O)(=O)c1cccc(Cl)c1)C2` [Example 37, ((4aS,6S)-6-((3-chlorophenyl)sulfonyl)-1-(4-fluorophenyl)-1,4,5,6,7,8-hexahydro-4aH-benzo[f]indazol-4a-yl)(pyridin-2-yl)methanone] returned an IC50 of at most 0.1 µM. Take `Cc1ccnc(C(=O)[C@]23Cc4cnn(-c5ccc(F)cc5)c4C=C2CC[C@@H](S(=O)(=O)c2ccccc2)C3)c1` [Example 38, ((4aS,6R)-1-(4-fluorophenyl)-6-(phenylsulfonyl)-1,4,5,6,7,8-hexahydro-4aH-benzo[f]indazol-4a-yl)(4-methylpyridin-2-yl)methanone]: the IC50 was at most 0.1 µM. As to `Cc1ccnc(C(=O)[C@]23Cc4cnn(-c5ccc(F)cc5)c4C=C2CC[C@H](S(=O)(=O)c2cnn(C)n2)C3)c1` [Example 39, ((4aS,6S)-1-(4-fluorophenyl)-6-((2-methyl-2H-1,2,3-triazol-4-yl)sulfonyl)-1,4,5,6,7,8-hexahydro-4aH-benzo[f]indazol-4a-yl)(4-methylpyridin-2-yl)methanone], the IC50 was at most 0.1 µM. Turning to `CC(C)(C)S(=O)(=O)[C@H]1CCC2=Cc3c(cnn3-c3ccc(F)cc3)C[C@]2(C(=O)c2ccccn2)C1` [Example 40, ((4aS,6S)-6-(tert-butylsulfonyl)-1-(4-fluorophenyl)-1,4,5,6,7,8-hexahydro-4aH-benzo[f]indazol-4a-yl)(pyridin-2-yl)methanone], the IC50 is at most 0.1 µM. For `O=C(c1cc(C(F)(F)F)ccn1)[C@]12Cc3cnn(-c4ccc(F)cc4)c3C=C1CC[C@H](S(=O)(=O)c1ccccn1)C2` [Example 41, ((4aS,6S)-1-(4-fluorophenyl)-6-(pyridin-2-ylsulfonyl)-1,4,5,6,7,8-hexahydro-4aH-benzo[f]indazol-4a-yl)(4-(trifluoromethyl)pyridin-2-yl)methanone], the IC50 is at most 0.1 µM. The result for `Cc1ccc(C(=O)[C@]23Cc4cnn(-c5ccc(F)cc5)c4C=C2CC[C@H](S(=O)(=O)c2ccccn2)C3)nc1` [Example 42, ((4aS,6S)-1-(4-fluorophenyl)-6-(pyridin-2-ylsulfonyl)-1,4,5,6,7,8-hexahydro-4aH-benzo[f]indazol-4a-yl)(5-methylpyridin-2-yl)methanone] reads at most 0.1 µM. In the case of `O=C(c1ccccn1)[C@]12Cc3cnn(-c4ccc(F)cc4)c3C=C1CC[C@H](S(=O)(=O)c1cc(C(F)(F)F)ccn1)C2` [Example 43, ((4aS,6S)-1-(4-fluorophenyl)-6-((4-(trifluoromethyl)pyridin-2-yl)sulfonyl)-1,4,5,6,7,8-hexahydro-4aH-benzo[f]indazol-4a-yl)(pyridin-2-yl)methanone] it was at most 0.1 µM; in that of `Cc1ccnc(C(=O)[C@]23Cc4cnn(-c5ccc(F)cc5)c4C=C2CC[C@H](S(=O)(=O)c2cccc(Cl)c2)C3)c1` [Example 44, ((4aS,6S)-6-((3-chlorophenyl)sulfonyl)-1-(4-fluorophenyl)-1,4,5,6,7,8-hexahydro-4aH-benzo[f]indazol-4a-yl)(4-methylpyridin-2-yl)methanone], at most 0.1 µM; in that of `Cc1ccc(C(=O)[C@]23Cc4cnn(-c5ccc(F)cc5)c4C=C2CC[C@H](S(=O)(=O)c2ccccc2)C3)nc1` [Example 45, ((4aS,6S)-1-(4-fluorophenyl)-6-(phenylsulfonyl)-1,4,5,6,7,8-hexahydro-4aH-benzo[f]indazol-4a-yl)(5-methylpyridin-2-yl)methanone], at most 0.1 µM. In the case of `O=C(c1ccccn1)[C@]12Cc3cnn(-c4ccc(F)cc4)c3C=C1CC[C@H](S(=O)(=O)C1CCOCC1)C2` [Example 46, ((4aS,6S)-1-(4-fluorophenyl)-6-((tetrahydro-2H-pyran-4-yl)sulfonyl)-1,4,5,6,7,8-hexahydro-4aH-benzo[f]indazol-4a-yl)(pyridin-2-yl)methanone], the IC50 was at most 0.1 µM.

Values taken from patent US20210122730A1, “GLUCOCORTICOID RECEPTOR MODULATORS” (ORIC Pharmaceuticals, Inc., priority 2017, published 2021).
